From patent US12365655B2, “Compounds” (CTXT PTY LTD, priority 2018, dated 2025)

How the values were obtained:
[1] = biological target: T1, MOF-KAT8 (Homo sapiens, UniProt Q9H7Z6); assay: biochemical
T1 sequence (Q9H7Z6 with tags, fused parts or gaps): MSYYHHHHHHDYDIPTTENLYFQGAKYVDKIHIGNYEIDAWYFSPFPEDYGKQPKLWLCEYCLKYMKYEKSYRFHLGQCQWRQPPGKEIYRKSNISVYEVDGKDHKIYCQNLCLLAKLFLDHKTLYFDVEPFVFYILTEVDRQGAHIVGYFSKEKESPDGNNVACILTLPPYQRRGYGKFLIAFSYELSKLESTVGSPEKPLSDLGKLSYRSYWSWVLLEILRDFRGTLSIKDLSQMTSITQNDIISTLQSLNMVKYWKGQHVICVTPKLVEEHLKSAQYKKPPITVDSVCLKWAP

[2] = biological target: TIP60-KAT5 (Homo sapiens, UniProt Q92993); assay: Acetyltransferase biochemical assay (AlphaScreen), KAT5
Sequence of TIP60-KAT5 (Q92993 with tags, fused parts or gaps isoform Q92993-2): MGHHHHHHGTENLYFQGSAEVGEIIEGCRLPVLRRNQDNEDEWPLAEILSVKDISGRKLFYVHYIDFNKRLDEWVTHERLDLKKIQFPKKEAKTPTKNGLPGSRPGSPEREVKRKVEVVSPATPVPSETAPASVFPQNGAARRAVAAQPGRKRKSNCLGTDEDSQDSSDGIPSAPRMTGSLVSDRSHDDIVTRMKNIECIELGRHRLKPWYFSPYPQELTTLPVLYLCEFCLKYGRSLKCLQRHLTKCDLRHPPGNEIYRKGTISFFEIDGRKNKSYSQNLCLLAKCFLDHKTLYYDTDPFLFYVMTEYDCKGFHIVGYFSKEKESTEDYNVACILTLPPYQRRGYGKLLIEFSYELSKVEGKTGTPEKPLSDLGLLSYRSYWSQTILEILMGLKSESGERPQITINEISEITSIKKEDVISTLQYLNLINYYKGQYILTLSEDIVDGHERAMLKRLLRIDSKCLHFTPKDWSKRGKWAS

[3] = biological target: HBO-KAT7 (Homo sapiens, UniProt O95251); assay: Acetyltransferase biochemical assay (AlphaScreen), KAT7
Sequence of HBO-KAT7 (O95251 with tags, fused parts or gaps): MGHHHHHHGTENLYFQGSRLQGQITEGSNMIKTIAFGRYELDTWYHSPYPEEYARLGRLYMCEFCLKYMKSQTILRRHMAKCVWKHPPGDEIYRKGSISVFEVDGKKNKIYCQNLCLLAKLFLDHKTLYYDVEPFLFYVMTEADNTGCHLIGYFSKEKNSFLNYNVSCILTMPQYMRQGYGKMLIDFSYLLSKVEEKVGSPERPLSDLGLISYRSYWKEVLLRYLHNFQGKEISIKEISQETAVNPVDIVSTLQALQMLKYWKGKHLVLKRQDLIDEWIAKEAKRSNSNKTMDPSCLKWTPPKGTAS

[4] = biological target: MOZ-KAT6A (Homo sapiens, UniProt Q92794, A567V); assay: Acetyltransferase biochemical assay (AlphaScreen), KAT6A
Sequence of MOZ-KAT6A (Q92794 with tags, fused parts or gaps A567V): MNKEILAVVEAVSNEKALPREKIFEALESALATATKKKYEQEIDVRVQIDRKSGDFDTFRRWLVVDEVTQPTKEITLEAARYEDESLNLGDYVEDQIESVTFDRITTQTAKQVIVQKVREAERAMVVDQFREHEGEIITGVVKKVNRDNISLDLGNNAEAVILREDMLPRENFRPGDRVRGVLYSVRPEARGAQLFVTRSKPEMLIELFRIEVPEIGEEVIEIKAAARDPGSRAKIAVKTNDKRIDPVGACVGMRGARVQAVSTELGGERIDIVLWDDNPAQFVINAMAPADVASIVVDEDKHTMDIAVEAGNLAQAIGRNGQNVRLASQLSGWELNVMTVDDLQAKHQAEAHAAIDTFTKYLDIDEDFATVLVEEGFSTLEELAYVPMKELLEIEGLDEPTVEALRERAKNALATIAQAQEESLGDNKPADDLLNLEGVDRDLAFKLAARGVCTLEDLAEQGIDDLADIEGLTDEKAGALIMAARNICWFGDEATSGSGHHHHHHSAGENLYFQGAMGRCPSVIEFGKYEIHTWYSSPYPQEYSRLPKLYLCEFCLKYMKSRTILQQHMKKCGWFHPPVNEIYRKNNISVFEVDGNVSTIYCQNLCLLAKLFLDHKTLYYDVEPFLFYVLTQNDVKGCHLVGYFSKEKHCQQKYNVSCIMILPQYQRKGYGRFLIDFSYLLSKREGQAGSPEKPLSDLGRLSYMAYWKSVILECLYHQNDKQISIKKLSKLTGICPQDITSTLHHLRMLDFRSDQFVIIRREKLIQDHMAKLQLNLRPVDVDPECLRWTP

| SMILES | IC50 [1] [µM] | IC50 [2] [µM] | IC50 [3] [µM] | IC50 [4] [µM] |
| --- | --- | --- | --- | --- |
| CCOc1cccc2c(NS(=O)(=O)c3cc(CC)ccc3OC)noc12 [Example 132] | 15.3 | 53 | 11.8 | 7.45 |
| O=S(=O)(Nc1noc2cccc(Cl)c12)c1ccc(Cl)cc1 [Example 26, 4-chloro-N-(4-chlorobenzo[d]isoxazol-3-yl)benzenesulfonamide] | 29.5 | > 125 | 34.5 | 60.1 |
| CCc1ccc2onc(NS(=O)(=O)c3cc4c(cc3OC)CCCC4)c2c1 [Example 204, N-(5-Ethylbenzo[d]isoxazol-3-yl)-3-methoxy-5,6,7,8-tetrahydronaphthalene-2-sulfonamide] | 3.06 | 4.57 | 3.05 | 0.4 |
| COc1cccc(OC)c1S(=O)(=O)Nc1noc2cccc([N+](=O)[O-])c12 [Example 223, 2,6-Dimethoxy-N-(4-nitrobenzo[d]isoxazol-3-yl)benzenesulfonamide] | 42.4 | > 125 | 43.5 | 25.5 |
| COCc1cc2onc(NS(=O)(=O)c3cccnc3)c2cc1C [Example 165, N-(6-(methoxymethyl)-5-methylbenzo[d]isoxazol-3-yl)pyridine-3-sulfonamide] | > 125 | > 125 | 30.7 | 99.9 |
| COc1cccc2onc(NS(=O)(=O)c3cccc4ccoc34)c12 [Example 81, N-(4-methoxybenzo[d]isoxazol-3-yl)benzofuran-7-sulfonamide] | 9.43 | 31.5 | 6.73 | 43.6 |
| CCc1ccc(OC)c(S(=O)(=O)Nc2noc3cccc(OC)c23)c1OC [Example 94, 3-Ethyl-2,6-dimethoxy-N-(4-methoxybenzo[d]isoxazol-3-yl)benzenesulfonamide] | 60.9 | 124 | 16.1 | 6.11 |
| CCc1ccc(OC)c(S(=O)(=O)Nc2noc3cccc(Cl)c23)c1 [Example 154] | 2.57 | 25.3 | 3.13 | 0.516 |
| Cc1ccc(-c2ccno2)cc1S(=O)(=O)Nc1noc2cccc(Cl)c12 [Example 19, N-(4-chlorobenzo [d]isoxazol-3-yl)-5-(isoxazol-5-yl)-2-methylbenzenesulfonamide] | 41 | 65 | 36.1 | 32.2 |
| CNc1cccc(OC)c1S(=O)(=O)Nc1noc2cccc(OC)c12 [Example 214, 2-Methoxy-N-(4-methoxybenzo[d]isoxazol-3-yl)-6-(methylamino)benzenesulfonamide] | > 125 | > 125 | > 125 | 36.4 |
| COCc1cc(OC)c2c(NS(=O)(=O)c3c(OC)cccc3OC)noc2c1Cl [Example 161] | 118 | > 125 | 2.51 | 1.87 |
| COCc1cc2onc(NS(=O)(=O)c3ccc(OC)nc3)c2cc1C [Example 164, 6-methoxy-N-(6-(methoxymethyl)-5-methylbenzo[d]isoxazol-3-yl)pyridine-3-sulfonamide] | > 125 | > 125 | 61.6 | 27.2 |
| CCOc1ccc2onc(NS(=O)(=O)c3cc(CC)ccc3OC)c2c1 [Example 109] | 9.12 | 69.3 | 4.07 | 1.21 |
| COc1cccc(OCC(N)=O)c1S(=O)(=O)Nc1noc2cccc(OC)c12 [Example 219, 2-(3-Methoxy-2-(N-(4-methoxybenzo[d]isoxazol-3-yl)sulfamoyl)phenoxy)acetamide] | 69.9 | > 125 | 60.7 | 33.3 |
| COc1cc(COc2cccc(OC)c2S(=O)(=O)Nc2noc3cccc(OC)c23)ccn1 [Example 216, 2-Methoxy-N-(4-methoxybenzo[d]isoxazol-3-yl)-6-((2-methoxypyridin-4-yl)methoxy)benzenesulfonamide] | 11.2 | 124 | 3.11 | 0.625 |
| CCc1ccc(OC)c(S(=O)(=O)Nc2noc3ccc(OC)cc23)c1 [Example 111, 5-Ethyl-2-methoxy-N-(5-methoxybenzo[d]isoxazol-3-yl)benzenesulfonamide] | 3.22 | 26.6 | 4.54 | 0.842 |
| Cc1ccc(-n2cccn2)cc1S(=O)(=O)Nc1noc2cccc(Cl)c12 [Example 20, N-(4-chlorobenzo [d]isoxazol-3-yl)-2-methyl-5-(1H-pyrazol-1-yl)benzenesulfonamide] | 61.4 | 81.5 | 41.3 | 29.4 |
| COc1cccc(OC)c1S(=O)(=O)Nc1noc2cc(C(C)OC)cc(OC)c12 (stereo not drawn) [Example 93, 2,6-Dimethoxy-N-(4-methoxy-6-(1-methoxyethyl)benzo[d]isoxazol-3-yl)benzenesulfonamide] | 96.5 | 53.1 | 2.8 | 0.181 |

| SMILES | IC50 [1] [µM] | IC50 [2] [µM] | IC50 [3] [µM] | IC50 [4] [µM] |
| --- | --- | --- | --- | --- |
| COc1cccc(OC)c1S(=O)(=O)Nc1noc2cccc(N)c12 [Example 224] | 113 | > 125 | > 125 | 50.4 |
| COc1cc2c(cc1S(=O)(=O)Nc1noc3ccc(C4CC4)cc13)CCCC2 [Example 205, N-(5-Cyclopropylbenzo[d]isoxazol-3-yl)-3-methoxy-5,6,7,8-tetrahydronaphthalene-2-sulfonamide] | 3.44 | 3.73 | 0.936 | 0.115 |
| COc1ccc(S(=O)(=O)Nc2noc3ccc(C)cc23)c(OC)c1 [Example 170, 2,4-dimethoxy-N-(5-methylbenzo[d]isoxazol-3-yl)benzenesulfonamide] | 9.67 | 4.83 | 0.982 | 1.5 |
| O=S(=O)(Nc1noc2ccccc12)c1cccc(-c2ccccc2)c1 [Example 70, N-(benzo[d]isoxazol-3-yl)-[1,1-biphenyl]-3-sulfonamide] | – | 36.8 | 32 | 31.3 |
| CC(C)Oc1ccc(S(=O)(=O)Nc2noc3cccc(Cl)c23)cc1 [Example 24, N-(4-chlorobenzo [d]isoxazol-3-yl)-4-isopropoxybenzene sulfonamide] | – | > 125 | 33.9 | > 125 |
| O=S(=O)(Nc1noc2ccccc12)c1ccc(Cl)cc1Cl [Example 62, N-(benzo[d]isoxazol-3-yl)-2,4-dichlorobenzene-sulfonamide] | – | > 125 | 70.6 | 43.7 |
| Cc1nnc(-c2cccc(S(=O)(=O)Nc3noc4ccccc34)c2)o1 [Example 67, N-(benzo[d]isoxazol-3-yl)-3-(5-methyl-1,3,4-oxadiazol-2-yl)benzene sulfonamide] | – | 115 | > 125 | 22.7 |
| Cc1cnc2c(S(=O)(=O)Nc3noc4cccc(Cl)c34)cccc2c1 [Example 118, N-(4-Chlorobenzo[d]isoxazol-3-yl)-3-methylquinoline-8-sulfonamide] | – | 37.1 | 0.852 | 10 |
| COc1ccc(C(C)C)cc1S(=O)(=O)Nc1noc2ccccc12 [Example 49, N-(benzo[d]isoxazol-3-yl)-5-isopropyl-2-methoxy benzene sulfonamide] | – | 74.6 | 77.8 | 8.13 |
| CCc1ccc(OC)c(S(=O)(=O)Nc2noc3c(CC)cccc23)c1 [Example 188] | – | 69.9 | 40.1 | 9.23 |
| O=S(=O)(Nc1noc2cccc(Cl)c12)c1ccccc1F [Example 30, N-(4-chlorobenzo [d]isoxazol-3-yl)-2-fluorobenzenesulfonamide] | – | > 125 | 11.5 | 89.5 |
| O=S(=O)(Nc1noc2cccc(Cl)c12)c1cccc2scnc12 [Example 15, N-(4-chlorobenzo [d]isoxazol-3-yl)benzo [d]thiazole-4-sulfonamide] | – | 7.29 | 1.46 | 1.91 |
| CCOc1ccc2c(NS(=O)(=O)c3cc(CC)ccc3OC)noc2c1 [Example 139] | – | 34.3 | 10 | 2.14 |
| O=S(=O)(Nc1noc2ccccc12)c1ccc(-c2ccccc2)cc1 [Example 69, N-(benzo[d]isoxazol-3-yl)-[1,1-biphenyl]-4-sulfonamide] | – | 124 | 94.1 | 42.9 |
| O=S(=O)(Nc1noc2cccc(Cl)c12)c1ccc(S(F)(F)(F)(F)F)cc1 [Example 35, N-(4-chlorobenzo [d]isoxazol-3-yl)-4-(pentafluoro-λ^6-sulfanyl)benzene sulfonamide] | – | 33.8 | 8.75 | 4.63 |
| O=S(=O)(Nc1noc2cccc(Cl)c12)c1cccc2c1OCCO2 [Example 39, N-(4-chlorobenzo [d]isoxazol-3-yl)-2,3-dihydrobenzo[b][1,4]dioxine-5-sulfonamide] | – | > 125 | 10.1 | 38.2 |
| COc1cccc2onc(NS(=O)(=O)c3ccccc3)c12 [Example 90, N-(4-Methoxybenzo[d]isoxazol-3-yl)benzenesulfonamide] | – | 90.7 | 18.9 | 4.78 |
| COCc1cc(OC)c2c(NS(=O)(=O)c3c(OC)cccc3OC)noc2c1I [Example 160] | – | 46.2 | 1.58 | 1.05 |
